Patent publication US10851065B2 (Eisai R&D Management Co., Ltd., priority 2015, dated 2020)

Assays:
[1] = tested on: MCF7-Y537S cells (MCF7 ER-alpha Y537S mutant); experiment: In vitro proliferation (viability) assay, CellTiter-Glo, MCF7-Y537S cells; assay type: cell-based; conditions: Homo sapiens; MCF7-Y537S cells, 6 days, CTG vs day 0; mean ± SD-type spread (n); read-out: GI50 MUT (Y537S)
Experimental: (§1) MCF7 BUS cells (Coser, et al., (2003) PNAS 100(24): 13994-13999) were maintained in Dulbecco's Modified Eagle Medium supplemented with 10% FBS, 4 mM L-glutamine and 1× non-essential amino acids. Lenti-X 293T cells (Clontech, Cat #632180) were routinely cultured in Dulbecco's Modified Eagle Medium supplemented with 10% FBS.
(§2) The QuikChange II XL Site-Directed Mutagenesis Kit (Agilent Technologies, Cat #200523) was used to generate Y537S, Y537C, Y537N and D538G mutations within the ERα exon 8. Wild-type ESR1 cDNA (GeneCopoeia Inc., Cat #GC-A0322, accession no. NM 000125) was used as a template with the following mutagenesis primers (where the underlined nucleotides represent site mutations); Y537S: F-AAGAACGTGGTGCCCCTCTCTGACCTGCTGCTGGAGATG (SEQ ID NO: 1), R-CATCTCCAGCAGCAGGTCAGAGAGGGGCACCACGTTCTT (SEQ ID NO: 2); Y537N: F-AAGAACGTGGTGCCCCTCAATGACCTGCTGCTGGAGATG (SEQ ID NO: 3), R-CATCTCCAGCAGCAGGTCATTGAGGGGCACCACGTTCTT (SEQ ID NO: 4); Y537C: F-AAGAACGTGGTGCCCCTCTGTGACCTGCTGCTGGAGATG (SEQ ID NO: 5), R-CATCTCCAGCAGCAGGTCACAGAGGGGCACCACGTTCTT (SEQ ID NO: 6); D538G: F-AACGTGGTGCCCCTCTATGGCCTGCTGCTGGAGATGCTG (SEQ ID NO: 7), R-CAGCATCTCCAGCAGCAGGCCATAGAGGGGCACCACGTT (SEQ ID NO: 8). WT and mutant ESR1 cDNAs were cloned into the designation lentiviral vector pLenti6.3/V5-Dest (Invitrogen, Cat #V533-06). To make lentivirus, DNAs (WT and mutant ESR1) were co-transfected with packaging plasmids into Lenti-X 293T cells using TransIT (Mirus, Cat #MIR 2700). 48 h post-transfection, virus containing media was filtered and added to MCF7 cells in the presence of 8 µg/ml polybrene overnight. Two days following infection, cells were placed under selection with 10 μg/ml blasticidin for 2 weeks for stable expression.
(§3) MCF7-WT and -Y537S cells were seeded at 1500 cells/well in black-walled 96-well plates (assay plates, Costar, Cat #3904). In parallel, cells were also seeded in a separate 96-well plate (8 wells/cell line, control plate) for which a CTG (CellTiter-Glo® Luminescent Viability Assay, Promega, Cat #G7572) was measured the following day (day 0 reading). The day 0 reading was used for the GI50 calculation at the termination of the experiment. The day following seeding, compounds were added to assay plates. Briefly, a 1:4 serial dilution was prepared in DMSO at 200× final concentration for a total of 10 concentrations (9 dilutions containing compound and one is DMSO only). Serially diluted compounds were pipetted into medium to prepare a compound-medium mix at 10× final concentration. 10 μl of compound-medium mix was added to MCF7-WT and -Y537S cells at 3 wells/concentration (triplicate for each concentration). On day 3, media/compound was removed and replaced with fresh media/compound as described above. On day 6, CTG was measured and compared to day 0 readings from control plate to assess GI50.

[2] = tested on: MCF7-WT cells (MCF7 ER-alpha wildtype); experiment: In vitro proliferation (viability) assay, CellTiter-Glo, MCF7-WT cells; assay type: cell-based; conditions: Homo sapiens; MCF7-WT cells, 6 days, CTG vs day 0; mean ± SD-type spread (n); read-out: GI50 WT
Experimental: as §1, §2, §3

| SMILES | GI50 [1] [nM] | GI50 [2] [nM] |
| --- | --- | --- |
| CN(C)C(=O)/C=C/CNCCOc1ccc(/C(=C(\c2ccccc2)C2CCC2)c2ccc3[nH]nc(F)c3c2)cc1 [Compound 14, (E)-4-((2-(4-((E)-2-cyclobutyl-1-(3-fluoro-1H-indazol-5-yl)-2-phenylvinyl)phenoxy)ethyl)amino)-N,N-dimethylbut-2-enamide 2,2,2-trifluoro acetate] | 30.7 ± 4.02 | 2.46 ± 1.43 |
| CC/C(=C(/c1ccc(OCCNC/C=C/C(=O)N2CCCCC2)cc1)c1ccc2[nH]ncc2c1)c1ccccc1 [Compound 12, (E)-4-((2-(4-((E)-1-(1H-indazol-5-yl)-2-phenylbut-1-en-1-yl)phenoxy)ethyl)amino)-1-(piperidin-1-yl)but-2-en-1-one] | 36.7 | 1.69 |
| CC/C(=C(/c1ccc(OCCNC/C=C/C(=O)N(C)C)cc1)c1ccc2[nH]nc(F)c2c1)c1ccccc1F [Compound 43, (E)-4-((2-(4-((E)-1-(3-fluoro-1H-indazol-5-yl)-2-(2-fluorophenyl)but-1-en-1-yl)phenoxy)ethyl)amino)-N,N-dimethylbut-2-enamide] | 47.3 | 1.94 |
| CC/C(=C(\c1ccc2[nH]nc(F)c2c1)c1ccc(OCCNC/C=C/C(=O)N(C)C)cn1)c1ccccc1 [Compound 93, (E)-4-((2-((6-((Z)-1-(3-fluoro-1H-indazol-5-yl)-2-phenylbut-1-en-1-yl)pyridin-3-yl)oxy)ethyl)amino)-N,N-dimethylbut-2-enamide] | 369 | 12.4 |
| CC/C(=C(/c1ccc(OCCNC/C=C/C(=O)N2CCC2)cc1)c1ccc2[nH]ncc2c1)c1ccccc1 [Compound 10, (E)-4-((2-(4-((E)-1-(1H-indazol-5-yl)-2-phenylbut-1-en-1-yl)phenoxy)ethyl)amino)-1-(azetidin-1-yl)but-2-en-1-one] | 21.2 ± 17.2 | 2.22 ± 2.34 |
| CC/C(=C(/c1ccc(OCCNC/C=C/C(=O)N(C)C)cc1)c1ccc2[nH]nc(F)c2c1)c1ccc(F)cc1Cl [Compound 19, (E)-4-((2-(4-((E)-2-(2-chloro-4-fluorophenyl)-1-(3-fluoro-1H-indazol-5-yl)but-1-en-1-yl)phenoxy)ethyl)amino)-N,N-dimethylbut-2-enamide] | 18.6 | 1.58 |
| CC/C(=C(/c1ccc(OCCNC/C=C/C(=O)N(C)C)cc1)c1ccc2[nH]nc(F)c2c1)c1ccccc1Cl [Compound 73, (E)-4-((2-(4-((E)-2-(2-chlorophenyl)-1-(3-fluoro-1H-indazol-5-yl)but-1-en-1-yl)phenoxy)ethyl)amino)-N,N-dimethylbut-2-enamide] | 40.5 | 1.7 |
| CC/C(=C(/c1ccc(OCCNCC/C=C/C(=O)N(C)C)cc1)c1ccc2[nH]nc(F)c2c1)c1ccc(F)cc1Cl [Compound 85] | 28.4 ± 2.9 | 1.56 ± 0.56 |
| CC/C(=C(/c1ccc(OCCNC/C=C/C(=O)N(C)C)cc1)c1cc(F)c2[nH]ncc2c1)c1ccccc1 [Compound 76, (E)-4-((2-(4-((E)-1-(7-fluoro-1H-indazol-5-yl)-2-phenylbut-1-en-1-yl)phenoxy)ethyl)amino)-N,N-dimethylbut-2-enamide] | 32.2 | 1.2 |
| CC/C(=C(\c1ccc2[nH]nc(F)c2c1)c1ccc(OCCNC/C=C/C(=O)N(C)C)cc1F)c1ccccc1 [Compound 64, (E)-4-((2-(3-fluoro-4-((Z)-1-(3-fluoro-1H-indazol-5-yl)-2-phenylbut-1-en-1-yl)phenoxy)ethyl)amino)-N,N-dimethylbut-2-enamide] | 58.3 | 3.1 |
| CC/C(=C(/c1ccc(OCCNC/C=C/C(=O)N(C)C)cc1)c1cc2c(F)n[nH]c2cc1F)c1ccccc1 [Compound 66, (E)-4-((2-(4-((E)-1-(3,6-difluoro-1H-indazol-5-yl)-2-phenylbut-1-en-1-yl)phenoxy)ethyl)amino)-N,N-dimethylbut-2-enamide] | 827 | 32.1 |
| CN(C)C(=O)/C=C/CNCCOc1ccc(/C(=C(/CCF)c2ccccc2)c2ccc3[nH]nc(F)c3c2)cc1 [Compound 84] | 34.9 ± 1.5 | 2.15 ± 0.15 |
| CC/C(=C(/c1ccc(OCCNC/C=C/C(=O)N(C)C)cc1)c1ccc2[nH]nc(F)c2c1)c1ccncc1F [Compound 81, (E)-4-((2-(4-((E)-1-(3-fluoro-1H-indazol-5-yl)-2-(3-fluoropyridin-4-yl)but-1-en-1-yl)phenoxy)ethyl)amino)-N,N-dimethylbut-2-enamide] | 13 | 0.3 |
| CC/C(=C(/c1ccc(OCCNC/C=C/C(=O)N(C)C)cc1)c1ccc2[nH]ncc2c1F)c1ccc(F)cc1Cl [Compound 57, (E)-4-((2-(4-((E)-2-(2-chloro-4-fluorophenyl)-1-(4-fluoro-1H-indazol-5-yl)but-1-en-1-yl)phenoxy)ethyl)amino)-N,N-dimethylbut-2-enamide] | 36.2 | 1.9 |

Second part, the compound after the results:

| GI50 [1] [nM] | GI50 [2] [nM] | SMILES |
| --- | --- | --- |
| 81.4 | 2.7 | CC/C(=C(/c1ccc(OC(C)(C)CNC/C=C/C(=O)N(C)C)cc1)c1ccc2[nH]ncc2c1)c1ccccc1 [Compound 99, (E)-4-((2-(4-((E)-1-(1H-indazol-5-yl)-2-phenylbut-1-en-1-yl)phenoxy)-2-methylpropyl)amino)-N,N-dimethylbut-2-enamide] |
| 22.3 | 1.59 | C#CCN(C)C(=O)/C=C/CNCCOc1ccc(/C(=C(/CC)c2ccccc2)c2ccc3[nH]ncc3c2)cc1 [Compound 8, (E)-4-((2-(4-((E)-1-(1H-indazol-5-yl)-2-phenylbut-1-en-1-yl)phenoxy)ethyl)amino)-N-methyl-N-(prop-2-yn-1-yl)but-2-enamide] |
| 25.2 | 2.18 | CCCN(C)C(=O)/C=C/CNCCOc1ccc(/C(=C(/CC)c2ccccc2)c2ccc3[nH]ncc3c2)cc1 [Compound 17, (E)-4-((2-(4-((E)-1-(1H-indazol-5-yl)-2-phenylbut-1-en-1-yl)phenoxy)ethyl)amino)-N-methyl-N-propylbut-2-enamide] |
| 61.3 ± 9.98 | 2.74 ± 1.06 | CN(C)C(=O)/C=C/CNCCOc1ccc(/C(=C(/CCCl)c2ccccc2)c2ccc3[nH]ncc3c2)cc1 [Compound 30, (E)-4-((2-(4-((E)-4-chloro-1-(1H-indazol-5-yl)-2-phenylbut-1-en-1-yl)phenoxy)ethyl)amino)-N,N-dimethylbut-2-enamide] |
| 26.9 | 2.3 | CC/C(=C(/c1ccc(OCC(C)NC/C=C/C(=O)N(C)C)cc1)c1ccc2[nH]ncc2c1)c1ccccc1 (stereo not drawn) [Compound 92, (E)-4-((1-(4-((E)-1-(1H-indazol-5-yl)-2-phenylbut-1-en-1-yl)phenoxy)propan-2-yl)amino)-N,N-dimethylbut-2-enamide] |
| 25 ± 21.9 | 4.96 ± 3.1 | CC/C(=C(/c1ccc(OCCNC/C=C/C(=O)N(C)C)cc1)c1ccc2[nH]ncc2c1)c1ccccc1C [Compound 36, (E)-4-((2-(4-((E)-1-(1H-indazol-5-yl)-2-(o-tolyl)but-1-en-1-yl)phenoxy)ethyl)amino)-N,N-dimethylbut-2-enamide] |
| 154 ± 51.7 | 26.6 ± 21.8 | CC/C(=C(/c1ccc(OCCNC/C(C)=C/C(=O)N(C)C)cc1)c1ccc2[nH]ncc2c1)c1ccccc1 [Compound 21, (E)-4-((2-(4-((E)-1-(1H-indazol-5-yl)-2-phenylbut-1-en-1-yl)phenoxy)ethyl)amino)-N,N,3-trimethylbut-2-enamide] |
